# Measured values from patent publication US20090291887A1, “Proteins of the SDF-1-Family for the Manufacturing of a Medicament” (priority 2006, published 2009).
# Key:
# [1] = test system: Ser-133 phosphorylated CREB in DRG neurons; experiment: PhosphoCREB assay; type: cell-based, rat; settings: P6 DRG neurons; 200 ng/ml; versus untreated cultures (FIG. 5)
# Experimental: Determination of Ser-133 phosphorylated CREB was performed on glass coverslips coated with PDL (1 mg/ml, Sigma) and laminin (13 μg/ml, Sigma). Dissociated DRGs were plated at a density of 5×10^4 cells/cm2 and incubated in DMEM containing 10% fetal bovine serum, nerve growth factor-2.5S, penicilline/streptomycine, and 5′-fluoro-2′-desoxyuridine for 24 h. Cells were stimulated by application of either 200 ng/ml SDF-1a/CXCL12 or 6 μM forskolin (Sigma), respectively, for 1-120 min. Samples were fixed with […] and stained for phophoCREB. Nuclei of P6 DRG neurons were stained with DAPI. For quantitative analysis of phosphoCREB-immunoreactivity, 30 pictures per coverslip were taken randomly at 20× magnification, and the number of neurons displaying phosphoCREB-positive nuclei as well as the total number of neurons were determined.
# DRG neurons = experiment: Myelin-inhibition assay (neurite growth of DRG neurons on laminin/myelin); type: cell-based, rat
# Experimental: Spinal neurons from the dorsal root ganglia (DRG) of young rats (day 6 postnatal) were plated in parallel on culture substrates coated with either poly-D-lysine (PDL)/laminin (13 μg/ml) or PDL/laminin (13 μg/ml)+myelin (200 ng/culture). The myelin preparation has been obtained from rat brain by biochemical fractionation and employed as a suspension for coating the culture dishes.
# The images shown in FIGS. 1-3 were recorded by immunofluorescence microscopy with PAM (panaxonal marker/neurofilament) antibody, and the visualization was effected by fluorescent dye (Alexa).
# CST-lesioned adult rats = experiment: Rat model of spinal cord transection, CST axon sprouting (BDA tracing); type: in vivo
# Experimental: The dura was opened at the thoracic level, and the vertebrae Th8 and Th9 were removed. The dorsal CST, dorsal columns and central canal were transected using a Scouten wire knife (Bilaney, Germany). Following the surgery, a silicon tube catheter was placed in the subdural space at 1 mm caudal to the lesion, and was connected to a mini-osmotic pump (Alzet) containing 200 μl of either SDF-1a/CXCL12 (10 μM in PBS) or Tris buffer. After the pump was fixed in place, the dura and overlying tissue were sutured, and the animals were allowed to recover. Application of either SDF-1a/CXCL12 or Tris buffer was carried out at a flow rate of 1 μl/h over a time period of 7 days. One week after lesion, the pump was removed in a second surgery.
# A total volume of 2.3 μl biotinylated dextrane amine, BDA, (10%, Molecular Probes) was stereotactically injected into both hemispheres of the sensorimotor cortex. […] Briefly, animals were transcardially perfused with 40% PFA. The spinal cord was removed, postfixed in 4% PFA, and cryoprotected in sucrose (30%, Sigma) for 3-5 days. Spinal cord samples were shock frozen in methyl butane and cut into 20 μm thick sagittal cryostat slices. Sections were collected onto Histobond coated glass slides (Menzel, Germany). […] Briefly, sections were washed in PBS followed by incubation with avidin-Oregon (1:1000, in PBS) at 4° C. over night. […]
substance,measurement,setting,value
SDF-1α,proportion of nuclei displaying phosphoCREB-immunoreactivity,[1],significantly increased
same,myelin-associated inhibition of neurite growth,"DRG neurons; DRG neurons on PDL/laminin + myelin, SDF-1 Alpha 200 ng/ml (FIG. 3)",essentially neutralized
same,"neutralization of myelin inhibition, quantitative evaluation","DRG neurons; FIG. 4, dose dependence",dose-dependent neutralization
same,myelin-induced inhibition of the neurite growth of DRG neurons in vitro,DRG neurons; concentration of 500 ng of SDF-1/ml,neutralized completely
same,animals that displayed extensive sprouting,"CST-lesioned adult rats; SDF-1a infusion, none out of three Tris buffer-infused rats",Two out of three
same,sprouting of BDA-labelled CST axons within the proximal stump,"CST-lesioned adult rats; subdural infusion by mini-osmotic pump, 10 μM, 1 μl/h, 7 days, versus Tris buffer (FIG. 6)",enhanced sprouting
